From patent US20100151053A1, “SYSTEM AND METHOD FOR THE DELIVERY OF A SANITIZING FOAM” (GREEN SOURCE AUTOMATED, LLC, priority 2008, published 2010)

Assay: volumes of gas dissolved in teat dip solution under pressure
Type: physicochemical
Settings: standard room temperature and 100 psi pressure; TeatKote 10/111 dip solution
Description: When a vessel containing the dip solution is pressurized, the gas mixture pressure causes the gasses to dissolve into the dip and an amount of energy caused by the pressurization acts upon the system. The system is allowed to come to equilibrium and the temperature is controlled such that any temperature rise caused by this energy introduction is removed. Henry's law states: “the amount of any given gas that will dissolve in a liquid at a given temperature is a function of the partial pressure of the gas that is in contact with the liquid and the solubility coefficient of the gas in the particular liquid.” In other words, the amount of gas that can be dissolved into a liquid depends on the temperature, the pressure, and how well the particular liquid absorbs gases. With that being said, in order to make a consistent application of the preparation as a foam on the teats of a cow, a consistent pressure and temperature is beneficial. A recirculation loop from the pressurized tank to the nozzle and back to the tank can, for example, be employed to make sure the temperature and dissolved gas content remain consistent with that of the dip mixture in the tank in an embodiment of the invention.
In various embodiments of the invention, a pressure vessel is used to hold the dip solution and expose it to the propellant/diffused gas or gasses. […]

## O=C=O [CO2, Carbon dioxide]
  volumes dissolved, gas versus dip solution: approximately 4.5 volumes

## [N-]=[N+]=O [Example N2O, nitrous oxide]
  volumes dissolved, gas versus dip solution: approximately four
